Values joined by “and” are separate entries in the source; they are usually repeats but may differ in a detail not shown here. Identical values can stand only once.
How the values were obtained:
T7 RNA polymerase [1] = biological target: T1, T7 RNA polymerase (Escherichia phage T7, UniProt P00573); assay: Transcription by T7 RNA polymerase in presence of rNTP, RNase T2 digestion, 2-dimension TLC (templates 1 and 3); format: biochemical; settings: for Template 1 (N = A) Measured Value / Template 3 (N = X) Measured Value: rATP, rGTP, rCTP, UTP 2 mM, rYTP 1 mM, nucleotide composition by 2-dimension TLC
Procedure: Transcription reaction in the presence of rNTP was conducted. […] ATP under the condition of rATP 2 mM, rGTP 2 mM, rCTP 2 mM, UTP 2 mM, and rYTP 1 mM, then generated full length of RNA was digested completely by RNase T2, nucleotide labeled at 3′-terminal was analyzed by 2-dimension TLC. Outline of this experiment is shown as follows.
Reaction was performed as same as in example 8. The generated RNA was isolated by gel electrophoresis. RNA was digested by 0.75 units RNase T2. Each nucleotide was separated using 2-dimension TLC and each ratio was calculated.

Klenow fragment [2] = biological target: T2, Klenow fragment (Escherichia coli, UniProt P00582); assay: Primer extension reaction by Klenow fragment; format: biochemical, E. coli; design: Klenow fragment, which is deleted 5′-exonuclease from DNA polymerase I; purchased TAKARA; settings: 17° C.; for incorporation to the complementary strand X (primer extension, FIG. 6): template 3 1 μM
Excerpt: In order to examine formation of selective novel nucleic acid base pair by utilizing steric hindrance in the base pair X-Y, primer extension method of DNA and transcriptional reaction synthesizing RNA from DNA were applied. The primer extension method includes annealing template DNA oligomer with a primer oligomer, and adding DNA polymerase and 2′-deoxynucleotide-5′-triphosphate (dNTP) to extend complementary sequence of the template at 3′-terminal of the primer. Klenow fragment, which is deleted 5′-exonuclease from DNA polymerase I, one of DNA polymerase originated from E. coli, and T7 RNA polymerase, RNA polymerase originated from T7 phage, were herein used. Both enzymes are commonly used at present.
5′-terminal of the primer was labeled with ^32P using T4 polynucleotide kinase and […]. Primer labeled with ^32P (0.5 μM) and template 1 and 3 (1 μM) and various dNTP (150 μM), wherein N means base, were used for primer extension by Klenow fragment (0.2 unit/μl) at 17° C. for 30 minutes.
The thus obtained product was electrophoresed using 20% polyacrylamide 7M urea gel and analyzed by using imaging plate (Phosphoroimager analysis). In FIG. 6, left five, i.e. AG, AGC, AGT, AGY and AGCT, indicates cases using template 1, and right five indicates cases using template 3.
In order to search effect of incorporation of Y, C and T into the complementary strand of X, when two X are presented on the template, ^32P labeled primer 3 at 5′-terminal and template 4, 5, 6, 7, 8 and 9 were used for primer extension method.
5′-^32P labeled primer, template and 10× Klenow fragment buffer (TAKARA) 1 μl were added to the 0.5 ml tube, adjusted total volume to 7 μl, and annealed at 95° C. for 3 minutes, at 40° C. for 3 minutes and at 4° C. for 7 minutes. dNTP 1 μl, Klenow fragment (1 unit/ml, For Sequencing, TAKARA) 2 μl were added, adjusted to total volume to 10 μl and incubated for the fixed time at 17° C. The reaction was terminated by adding 10 M urea BPB dye 5 μl, heated at 75° C. for 5 minutes, and electrophoresed with 20% polyacrylamide gel with 7M urea gel electrophoresis. The result was analyzed using imaging plates (Phosphoroimager analysis). Single nucleotide insertion reaction is shown in FIG. 7 and primer extension reaction is shown in FIG. 6 and FIG. 9, respectively.

T7 RNA polymerase [3] = biological target: T1, T7 RNA polymerase; assay: Transcription by T7 RNA polymerase, gel electrophoresis of generated RNA; format: biochemical; settings: for incorporation in transcription opposite G (FIG. 10): template 2 (N=G); for incorporation into the complementary strand of A in transcription (FIG. 10): template 1 (N=A); for incorporation to X in transcription (FIG. 10): template 3 (N=X)
Procedure: Similarly, a transcription reaction by RNA polymerase using DNA containing X as template was examined. Using template 1-3, promoter region on this strand was duplicated, and the transcription reaction was examined using T7 RNA polymerase by adding [α-^32P] ATP.
Template DNA 1 μM, in which promoter region has duplicated strands, and T7 RNA polymerase 2.5 units were added to a solution containing 2 mM rNTP, [α-^32P] […] The product was analyzed.

Klenow fragment [4] = biological target: T2, Klenow fragment; assay: Single nucleotide insertion reaction by Klenow fragment; format: biochemical, E. coli; design: Klenow fragment, which is deleted 5′-exonuclease from DNA polymerase I; purchased TAKARA; settings: primer 2 1 μM, only one dNTP 159 μM, 17° C., 30 minutes; for incorporated into complementary strand of X: template 3 2 μM
Procedure: For quantitative analysis of the incorporation, same experiments were conducted by adding only DNTP (159 μM) using primer 2 (1 μM) labeled with p32 at 5′-terminal and template 1, 2 and 3 (2 μM).
The result was analyzed using imaging plates (Phosphoroimager analysis). Single nucleotide insertion reaction is shown in FIG. 7 and primer extension reaction is shown in FIG. 6 and FIG. 9, respectively.

Klenow fragment (exo+) = biological target: T3, Klenow fragment (exo+) (Escherichia coli, UniProt P00582); assay: Single nucleotide insertion reaction using Klenow fragment (exo+); format: biochemical, E. coli; settings: 3 minutes; for rate of incorporation on dx2: template N = X2, 37° C.
T3 construct: Klenow fragment, which is deleted 5′-exonuclease from DNA polymerase I; purchased TAKARA
Procedure: Using Klenow fragment (exo^+), incorporation of dYTP on dx2 in the template (refer to example 10).
In the template, a position indicated by N was bound with base X or base X2 (for experimental) or base A (for control), and incorporation experiments of various bases were conducted. Results are shown in FIG. 12, in which lanes 1 and 2 indicate control experiments for incorporation of cytosine (C) and thymine (T) on adenine (A).
A solution containing [5′-^32P] labeled primer DNA (20-mer, […]), template DNA (35-mer, […]) and 2× Klenow fragment buffer (TAKARA) were annealed at 95° C. for 3 minutes, 40° C. for 3 minutes and 4° C. for 7 minutes. A solution of equimolar amount of 40 mM dNTP and Klenow fragment (exo^+) (2 unit/ml, For Sequencing, TAKARA) were added thereto and incubated at 37° C. for 3 minutes. […] Products were analyzed by using Phosphoroimager plate.

Klenow fragment [5] = biological target: T2, Klenow fragment; settings: 17° C.
Procedure: Primer 2 without labeling and template 2 were annealed, and [α-^32P] TTP and various amounts of dYTP were added thereto to find out ratio of inhibition of incorporation of [α-^32P] TTP into X by dYTP was investigated. […] As a result, when dYTP was added almost equivalent level of [α-^32P] TTP, incorporation of [α-^32P]
Primer, template and 10× Klenow fragment buffer (TAKARA) 1 μl were added to 0.5 ml tube, and total volume was adjusted to 7 μl, and annealed at 95° C. for 3 minutes, at 40° C. for 3 minutes and at 4° C. for 7 minutes. [α-^32P] TTP or [α-^32P] dCTP and dYTP were added to final concentration for each level, and Klenow fragment (1 unit/ml, For Sequencing, TAKARA) 2 μl was added, adjusted to total volume to 10 μl and incubated for the fixed time at 17° C. The reaction was terminated by adding 10 M urea BPB dye 5 μl kept at 75° C. for 5 minutes, and electrophoresed with 20% polyacrylamide gel with 7M urea gel electrophoresis. The result was analyzed using imaging plates (Phosphoroimager analysis).

[6] = primer 1 0.5 μM, dNTP 150 μM, 30 minutes

T3 sequence (P00582 324-928): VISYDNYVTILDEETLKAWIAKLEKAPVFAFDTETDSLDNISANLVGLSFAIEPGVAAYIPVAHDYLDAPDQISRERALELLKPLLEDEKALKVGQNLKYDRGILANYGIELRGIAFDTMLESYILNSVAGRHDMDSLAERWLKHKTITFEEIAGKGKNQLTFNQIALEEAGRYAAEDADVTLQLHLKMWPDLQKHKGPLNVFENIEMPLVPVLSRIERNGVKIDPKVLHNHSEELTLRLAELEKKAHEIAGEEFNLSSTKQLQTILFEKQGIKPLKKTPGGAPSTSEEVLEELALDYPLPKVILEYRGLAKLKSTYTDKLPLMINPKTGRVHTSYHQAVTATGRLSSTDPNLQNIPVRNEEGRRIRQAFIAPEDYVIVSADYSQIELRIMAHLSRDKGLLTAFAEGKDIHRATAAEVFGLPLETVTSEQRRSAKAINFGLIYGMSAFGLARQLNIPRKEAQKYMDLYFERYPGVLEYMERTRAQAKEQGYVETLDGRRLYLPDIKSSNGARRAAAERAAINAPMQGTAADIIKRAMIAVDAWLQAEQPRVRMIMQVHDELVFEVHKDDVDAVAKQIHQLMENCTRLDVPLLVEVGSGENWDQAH
T2 sequence (P00582 324-928): as above
T1 sequence (P00573 whole entry): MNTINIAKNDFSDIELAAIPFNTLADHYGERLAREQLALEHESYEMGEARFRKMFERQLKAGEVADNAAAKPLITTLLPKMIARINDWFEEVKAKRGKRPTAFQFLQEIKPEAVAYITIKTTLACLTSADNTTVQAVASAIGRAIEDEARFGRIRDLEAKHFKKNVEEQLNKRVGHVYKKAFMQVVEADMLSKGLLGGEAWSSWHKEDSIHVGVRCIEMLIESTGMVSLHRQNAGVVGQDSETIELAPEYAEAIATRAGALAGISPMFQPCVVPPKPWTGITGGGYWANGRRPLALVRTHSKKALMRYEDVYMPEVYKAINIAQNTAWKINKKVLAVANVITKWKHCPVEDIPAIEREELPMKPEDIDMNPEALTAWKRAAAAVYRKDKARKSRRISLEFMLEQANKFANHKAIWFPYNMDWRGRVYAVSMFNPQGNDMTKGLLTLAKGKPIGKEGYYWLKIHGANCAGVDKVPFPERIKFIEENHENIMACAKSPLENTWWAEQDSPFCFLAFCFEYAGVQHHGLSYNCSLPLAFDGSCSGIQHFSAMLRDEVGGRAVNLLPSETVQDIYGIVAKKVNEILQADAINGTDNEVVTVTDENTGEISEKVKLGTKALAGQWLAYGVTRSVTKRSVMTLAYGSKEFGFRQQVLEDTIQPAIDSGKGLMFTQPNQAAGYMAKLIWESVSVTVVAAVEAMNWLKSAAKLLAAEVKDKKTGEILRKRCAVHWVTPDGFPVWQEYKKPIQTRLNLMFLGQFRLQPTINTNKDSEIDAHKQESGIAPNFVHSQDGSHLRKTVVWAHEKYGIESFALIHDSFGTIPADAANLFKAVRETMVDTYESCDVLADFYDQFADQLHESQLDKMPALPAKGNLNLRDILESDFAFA

SMILES: Nc1ncnc2c1ncn2[C@@H]1O[C@H](CO)[C@@H](OP(=O)(O)O)[C@H]1O [Ap]
- Template 1 (N = A) Measured Value (T7 RNA polymerase [1]): 0.92
- Template 3 (N = X) Measured Value (T7 RNA polymerase [1]): 1.05

SMILES: Nc1cc[nH]c(=O)n1 [C, cytosine]
- incorporation to the complementary strand X (primer extension, FIG. 6) (Klenow fragment [2]; [6]): incorporated
- incorporation in transcription opposite G (FIG. 10) (T7 RNA polymerase [3]): only C was incorporated
- incorporated into complementary strand of X (Klenow fragment [4]): 9.5%

SMILES: Nc1ccn([C@@H]2O[C@H](CO)[C@@H](OP(=O)(O)O)[C@H]2O)c(=O)n1 [Cp]
- Template 1 (N = A) Measured Value (T7 RNA polymerase [1]): 0.78
- Template 3 (N = X) Measured Value (T7 RNA polymerase [1]): 0.94

SMILES: Nc1nc2c(ncn2[C@@H]2O[C@H](CO)[C@@H](OP(=O)(O)O)[C@H]2O)c(=O)[nH]1 [Gp]
- Template 1 (N = A) Measured Value (T7 RNA polymerase [1]): 4
- Template 3 (N = X) Measured Value (T7 RNA polymerase [1]): 4

SMILES: Cc1c[nH]c(=O)[nH]c1=O [T, thymine]
- incorporation to the complementary strand X (primer extension, FIG. 6) (Klenow fragment [2]; [6]): incorporated
- incorporated into complementary strand of X (Klenow fragment [4]): 13%

SMILES: O=c1cc[nH]c(=O)[nH]1 [U]
- incorporation into the complementary strand of A in transcription (FIG. 10) (T7 RNA polymerase [3]): incorporated
- incorporation to X in transcription (FIG. 10) (T7 RNA polymerase [3]): Trace amount
- incorporation in transcription reaction in the presence of rNTP (T7 RNA polymerase [1]; template 3 (N=X)): trace amount

SMILES: O=c1ccn([C@@H]2O[C@H](CO)[C@@H](OP(=O)(O)O)[C@H]2O)c(=O)[nH]1 [Up]
- Template 1 (N = A) Measured Value (T7 RNA polymerase [1]): 0.98
- Template 3 (N = X) Measured Value (T7 RNA polymerase [1]): 0.08

SMILES: O=c1cccc[nH]1 [Y, pyridine-2-one]
- incorporation into the complementary strand of the second X in the two X (Klenow fragment [2]; another base between two X on the template, primer 3, dNTP 150 μM, 60 minutes (FIG. 9)): only Y was incorporated
- incorporation into complementary strands (primer extension, FIG. 6) (Klenow fragment [2]; primer 1 0.5 μM, template 1 and 3 1 μM, dNTP 150 μM, 30 minutes): incorporated into complementary strands of A, G and X
- incorporation into the complementary strand of A in transcription (FIG. 10) (T7 RNA polymerase [3]): incorporated
- incorporation in transcription opposite G (FIG. 10) (T7 RNA polymerase [3]): almost no production
- incorporation to X in transcription (FIG. 10) (T7 RNA polymerase [3]): selective incorporation
- incorporation in transcription reaction in the presence of rNTP (T7 RNA polymerase [1]; template 1 (N=A)): no incorporation
- incorporation in transcription reaction in the presence of rNTP (T7 RNA polymerase [1]; template 3 (N=X)): almost selectively incorporated
- incorporated into complementary strand of A (Klenow fragment [4]; template 1 2 μM): 78%
- incorporated into complementary strand of G (Klenow fragment [4]; template 2 2 μM): 48%
- incorporated into complementary strand of X (Klenow fragment [4]): 42% and 41%

SMILES: Nc1ccn([C@H]2C[C@H](O)[C@@H](COP(=O)(O)OP(=O)(O)OP(=O)(O)O)O2)c(=O)n1 [dCTP]
- rate of incorporation on dx2 (Klenow fragment (exo+)): 22%

SMILES: O=c1[nH]cccc1[C@H]1C[C@H](O)[C@@H](COP(=O)(O)OP(=O)(O)OP(=O)(O)O)O1 [dYTP, 3-(2′-deoxy-5′-O-triphosphoryl-β-D-ribofuranosyl) pyridine-2-one]
- rate of incorporation on dx2 (Klenow fragment (exo+)): 40%
- rate of incorporation on dx (Klenow fragment (exo+); template N = X, 37° C.): 21%
- inhibition of incorporation of [α-32P] TTP into X by dYTP (Klenow fragment [5]; dYTP added at almost equivalent level of [α-32P] TTP, 30 minutes): 50%
- inhibition of incorporation of [α-32P] TTP into the complementary strand of A (Klenow fragment [5]; template 1, dYTP 0-1000 μM): did not inhibit
- inhibition of incorporation of [α-32P] CTP into the complementary strand of G (Klenow fragment [5]; template 2, dYTP 0-1000 μM): did not inhibit

From patent US7667031B2, “Nucleic acid base pair” (Japan Science and Technology Agency, priority 1999, dated 2010)
